EC50 data for 19 compounds are collected here from ChEMBL document CHEMBL3044932, “In vitro cytotoxicity evaluation of diversely substituted N-aryl-2-oxindoles” (2013).

Structures are written as SMILES. ≈ marks a conversion by molar mass, not a printed value. Some results are limits rather than exact numbers.

Holding throughout (format): functional
In one experiment the test system is MOLT-4. Nature of the experiment: Cytotoxicity against Homo sapiens (human) MOLT4 cells after 72 hr by MTT assay. Particulars: MOLT-4, 72 h, read-out: ED50 (the source's name). On the technique in general: Tetrazolium dyes change colour on reduction, which living cells bring about.
Another experiment relates to B16-F10. The experiment can be described thus: Cytotoxicity against Homo sapiens (human) B16F10 cells after 72 hr by MTT assay. As to conditions: Mus musculus, B16-F10, 72 h; read-out: ED50 (the source's name).
A further experiment relates to HuTu80. The experiment can be described thus: Cytotoxicity against Homo sapiens (human) HuTu 80 cells after 72 hr by MTT assay. Particulars: HuTu80, 72 h, read-out: ED50 (the source's name).
For the next experiment, the system named is KB. The experiment can be described thus: Cytotoxicity against Homo sapiens (human) KB cells after 72 hr by MTT assay. Particulars: read-out: ED50 (the source's name).
The subject of the next experiment is L132. Nature of the experiment: Cytotoxicity against Homo sapiens (human) L-132 cells after 72 hr by MTT assay. As to conditions: L132, 72 h, read-out: ED50 (the source's name).
Another experiment relates to MIA PaCa-2. The experiment can be described thus: Cytotoxicity against Homo sapiens (human) MIAPaCa2 cells after 72 hr by MTT assay. As to conditions: MIA PaCa-2, 72 h, read-out: ED50 (the source's name).
The subject of the next experiment is MCF7. Nature of the experiment: Cytotoxicity against Homo sapiens (human) MCF7 cells after 72 hr by MTT assay. As to conditions: MCF7, 72 h, read-out: ED50 (the source's name).

Regarding `O=C1/C(=C\c2cccc(Cl)c2)c2ccccc2N1c1c(Cl)cccc1Cl`, the EC50 in the experiment with MOLT-4 was determined as 6 µg/mL (≈ 15 µM); in the experiment on B16-F10, 8 µg/mL (≈ 20 µM); with HuTu80, 7 µg/mL (≈ 17.5 µM); in the experiment with KB, 2 µg/mL (≈ 4.99 µM); in the experiment on L132, 16 µg/mL (≈ 39.9 µM); with MIA PaCa-2, 5 µg/mL (≈ 12.5 µM).
`O=C1/C(=C\c2ccc(Cl)cc2)c2ccccc2N1c1c(Cl)cccc1Cl`: the EC50 is greater than 100 µg/mL in the experiment on B16-F10; 6 µg/mL (≈ 15 µM) in the experiment on HuTu80; 2 µg/mL (≈ 4.99 µM) in the experiment on KB; 5 µg/mL (≈ 12.5 µM) with MCF7; 9 µg/mL (≈ 22.5 µM) in the experiment with L132; 5 µg/mL (≈ 12.5 µM) in the experiment with MIA PaCa-2.
Regarding `O=C1/C(=C\c2ccccc2[N+](=O)[O-])c2ccccc2N1c1c(Cl)cccc1Cl`, the EC50 is 6 µg/mL (≈ 14.6 µM) in the experiment with MOLT-4; greater than 100 µg/mL with B16-F10; 10 µg/mL (≈ 24.3 µM) in the experiment on HuTu80; 1 µg/mL (≈ 2.43 µM) in the experiment with KB; 10 µg/mL (≈ 24.3 µM) in the experiment on L132; 5 µg/mL (≈ 12.2 µM) in the experiment on MIA PaCa-2.
For `O=C1/C(=C\c2c(Cl)cccc2Cl)c2ccccc2N1c1c(Cl)cccc1Cl`, the EC50 in the experiment with B16-F10 is greater than 100 µg/mL; in the experiment with HuTu80 it was 100 µg/mL (≈ 230 µM); in the experiment with KB it was 50 µg/mL (≈ 115 µM); in the experiment with MCF7 it was greater than 100 µg/mL; in the experiment with L132, greater than 100 µg/mL; in the experiment with MIA PaCa-2, greater than 100 µg/mL.
As to `O=C1/C(=C\c2ccco2)c2ccccc2N1c1c(Cl)cccc1Cl`, the EC50 is greater than 100 µg/mL in the experiment with B16-F10; 18 µg/mL (≈ 50.5 µM) in the experiment with HuTu80; 5 µg/mL (≈ 14 µM) with KB; greater than 100 µg/mL in the experiment with MCF7; greater than 100 µg/mL in the experiment with L132; 10 µg/mL (≈ 28.1 µM) in the experiment on MIA PaCa-2.
On to `O=C1/C(=C\c2cccc3ccccc23)c2ccccc2N1c1c(Cl)cccc1Cl`, for which the EC50 is greater than 100 µg/mL in the experiment on B16-F10; 10 µg/mL (≈ 24 µM) in the experiment with HuTu80; greater than 100 µg/mL with KB; greater than 100 µg/mL in the experiment on MCF7; greater than 100 µg/mL in the experiment with L132; greater than 100 µg/mL with MIA PaCa-2.
Regarding `O=C1Cc2ccccc2N1c1c(Cl)cccc1Cl`, the EC50 in the experiment with B16-F10 was greater than 100 µg/mL; with HuTu80, greater than 100 µg/mL; in the experiment on KB it was 100 µg/mL (≈ 360 µM); in the experiment on MCF7 it was greater than 100 µg/mL; in the experiment on L132, greater than 100 µg/mL; with MIA PaCa-2, greater than 100 µg/mL.
Take `CN(C)c1ccc(/C=C2\C(=O)N(c3c(Cl)cccc3Cl)c3ccccc32)cc1`: the EC50 in the experiment with B16-F10 is greater than 100 µg/mL; in the experiment on HuTu80, less than 1 µg/mL; in the experiment on KB it was 15 µg/mL (≈ 36.6 µM); in the experiment on MCF7, greater than 100 µg/mL; with L132, greater than 100 µg/mL; in the experiment with MIA PaCa-2, greater than 100 µg/mL.
Take `O=C1/C(=C\c2ccc(F)cc2)c2ccccc2N1c1c(Cl)cccc1Cl`: the EC50 in the experiment with B16-F10 turned out to be 38 µg/mL (≈ 98.9 µM); in the experiment with HuTu80, 8 µg/mL (≈ 20.8 µM); in the experiment with KB, 5 µg/mL (≈ 13 µM); in the experiment with MCF7 it was 9 µg/mL (≈ 23.4 µM); in the experiment on L132, 13 µg/mL (≈ 33.8 µM); in the experiment on MIA PaCa-2, 5 µg/mL (≈ 13 µM).
Consider `O=C1/C(=C\c2ccc(O)cc2)c2ccccc2N1c1c(Cl)cccc1Cl`, for which the EC50 was 33 µg/mL (≈ 86.3 µM) with B16-F10; 25 µg/mL (≈ 65.4 µM) in the experiment on HuTu80; 2 µg/mL (≈ 5.23 µM) in the experiment on KB; 20 µg/mL (≈ 52.3 µM) in the experiment on MCF7; 30 µg/mL (≈ 78.5 µM) in the experiment on L132; 2 µg/mL (≈ 5.23 µM) in the experiment on MIA PaCa-2.
Regarding `Cc1ccc2nc(Cl)c(/C=C3\C(=O)N(c4c(Cl)cccc4Cl)c4ccccc43)cc2c1`, the values for the EC50 in the experiment with KB and with MCF7 were 100 µg/mL (≈ 215 µM) and greater than 100 µg/mL, respectively.
In the case of `O=C1/C(=C\c2ccccc2)c2ccccc2N1c1c(Cl)cccc1Cl`, the EC50 in the experiment with MOLT-4 is 7 µg/mL (≈ 19.1 µM); in the experiment on B16-F10, 9 µg/mL (≈ 24.6 µM); in the experiment on HuTu80 it was 8 µg/mL (≈ 21.8 µM); in the experiment on KB, 10 µg/mL (≈ 27.3 µM); in the experiment on MCF7 it was 10 µg/mL (≈ 27.3 µM); with L132 it was greater than 100 µg/mL. In addition, the EC50 in the experiment on MIA PaCa-2 is greater than 100 µg/mL.
In the case of `COc1ccc(/C=C2\C(=O)N(c3c(Cl)cccc3Cl)c3ccccc32)cc1`, the EC50 in the experiment with B16-F10, in the experiment with HuTu80, with KB, in the experiment on MCF7, in the experiment on L132 and with MIA PaCa-2 was greater than 100 µg/mL in each case.
Regarding `O=C1/C(=C\c2cccc(Br)c2)c2ccccc2N1c1c(Cl)cccc1Cl`, the EC50 in the experiment on MOLT-4 was found to be 7 µg/mL (≈ 15.7 µM); with B16-F10, 8 µg/mL (≈ 18 µM); with HuTu80 it was 7 µg/mL (≈ 15.7 µM); with KB, 2 µg/mL (≈ 4.49 µM); with MCF7, 5 µg/mL (≈ 11.2 µM); in the experiment with L132, 19 µg/mL (≈ 42.7 µM). The EC50 in the experiment with MIA PaCa-2 came to 5 µg/mL (≈ 11.2 µM).
For `O=C1/C(=C\c2ccccc2Cl)c2ccccc2N1c1c(Cl)cccc1Cl`, the EC50 is 7 µg/mL (≈ 17.5 µM) in the experiment on MOLT-4; 39 µg/mL (≈ 97.3 µM) with B16-F10; greater than 100 µg/mL in the experiment on HuTu80; 5 µg/mL (≈ 12.5 µM) with KB; 9 µg/mL (≈ 22.5 µM) in the experiment with MCF7; greater than 100 µg/mL with L132. For the same compound, in the experiment on MIA PaCa-2, the EC50 is greater than 100 µg/mL.
`O=C1/C(=C\c2cc3ccccc3nc2Cl)c2ccccc2N1c1c(Cl)cccc1Cl`: the values for the EC50 in the experiment with KB, in the experiment on MCF7 and with MIA PaCa-2 were 10 µg/mL (≈ 22.1 µM), greater than 100 µg/mL and 5 µg/mL (≈ 11.1 µM), respectively.
Turning to `Cc1ccc2nc(Cl)c(/C=C3\C(=O)N(c4c(Cl)cccc4Cl)c4ccccc43)cc2c1C`, the EC50 is greater than 100 µg/mL with B16-F10; less than 1 µg/mL with HuTu80; 10 µg/mL (≈ 20.8 µM) in the experiment with KB; greater than 100 µg/mL in the experiment on MCF7; 98 µg/mL (≈ 204 µM) with L132.
Turning to `O=C1/C(=C\c2cccc(Oc3ccccc3)c2)c2ccccc2N1c1c(Cl)cccc1Cl`, the EC50 with MOLT-4 was 6 µg/mL (≈ 13.1 µM); with B16-F10, greater than 100 µg/mL; in the experiment with HuTu80 it was 10 µg/mL (≈ 21.8 µM); in the experiment with KB, 5 µg/mL (≈ 10.9 µM); in the experiment with MCF7, 100 µg/mL (≈ 218 µM); in the experiment on L132 it was 24 µg/mL (≈ 52.4 µM). In addition, in the experiment with MIA PaCa-2, the EC50 was greater than 100 µg/mL.
Consider `COc1ccc(/C=C2\C(=O)N(c3c(Cl)cccc3Cl)c3ccccc32)cc1OC`, for which the EC50 is greater than 100 µg/mL with B16-F10; less than 1 µg/mL in the experiment with HuTu80; 10 µg/mL (≈ 23.5 µM) in the experiment with KB; 10 µg/mL (≈ 23.5 µM) with MCF7; greater than 100 µg/mL with L132; 5 µg/mL (≈ 11.7 µM) in the experiment with MIA PaCa-2.
